Five molecules from PubChem BioAssay AID1259407 (Chemical Carcinogenesis Research Information System (CCRIS), 2018) can be followed below.

The data set has as its system CCRIS mutagenicity, Ames/micronucleus/aberration tests. Nature of the data set: CCRIS mutagenicity studies.
Setting [1] is: Test System: AMES SALMONELLA TYPHIMURIUM, Strain/Indicator: TA98, Metabolic Activation: NONE, Method: PREINCUBATION
[2] abbreviates: Test System: AMES SALMONELLA TYPHIMURIUM, Strain/Indicator: TA100, Metabolic Activation: NONE, Method: PREINCUBATION
Setting [3] is: Test System: AMES SALMONELLA TYPHIMURIUM, Strain/Indicator: TA1535, Metabolic Activation: NONE, Method: PREINCUBATION
Setting [4] is: Test System: AMES SALMONELLA TYPHIMURIUM, Strain/Indicator: TA1535, Metabolic Activation: RAT, LIVER, S-9, AROCLOR 1254 (10%), Method: PREINCUBATION
[5] abbreviates: Test System: AMES SALMONELLA TYPHIMURIUM, Strain/Indicator: TA100, Metabolic Activation: NONE, Method: STANDARD PLATE.

Each structure is given as a SMILES string. Active and inactive are the calls of the source. No rule for the calls is given here.

Take `CC1=NN(c2ccccc2)C(=O)C1`: the mutagenic call is “inactive; negative” (Test System: AMES SALMONELLA TYPHIMURIUM, Strain/Indicator: TA98, Metabolic Activation: HAMSTER, LIVER, S-9, AROCLOR 1254 (10%), Method: PREINCUBATION); “inactive; negative” under setting [1]; “inactive; negative” (Test System: AMES SALMONELLA TYPHIMURIUM, Strain/Indicator: TA98, Metabolic Activation: RAT, LIVER, S-9, AROCLOR 1254 (10%), Method: PREINCUBATION); “inactive; negative” (Test System: AMES SALMONELLA TYPHIMURIUM, Strain/Indicator: TA100, Metabolic Activation: HAMSTER, LIVER, S-9, AROCLOR 1254 (10%), Method: PREINCUBATION); “inactive; negative” under setting [2]; “inactive; negative” (Test System: AMES SALMONELLA TYPHIMURIUM, Strain/Indicator: TA100, Metabolic Activation: RAT, LIVER, S-9, AROCLOR 1254 (10%), Method: PREINCUBATION). Further, the mutagenic call was “inactive; negative” (Test System: AMES SALMONELLA TYPHIMURIUM, Strain/Indicator: TA1535, Metabolic Activation: HAMSTER, LIVER, S-9, AROCLOR 1254 (10%), Method: PREINCUBATION); “inactive; negative” under setting [3]; “inactive; negative” under setting [4]; “inactive; negative” (Test System: AMES SALMONELLA TYPHIMURIUM, Strain/Indicator: TA1537, Metabolic Activation: HAMSTER, LIVER, S-9, AROCLOR 1254 (10%), Method: PREINCUBATION); “inactive; negative” (Test System: AMES SALMONELLA TYPHIMURIUM, Strain/Indicator: TA1537, Metabolic Activation: NONE, Method: PREINCUBATION); “inactive; negative” (Test System: AMES SALMONELLA TYPHIMURIUM, Strain/Indicator: TA1537, Metabolic Activation: RAT, LIVER, S-9, AROCLOR 1254 (10%), Method: PREINCUBATION). Moreover, the mutagenic call by setting is: (Test System: Ames Salmonella typhimurium, Strain/Indicator: TA98, Metabolic Activation: None, Method: Preincubation) “inactive; negative”; (Test System: Ames Salmonella typhimurium, Strain/Indicator: TA98, Metabolic Activation: Rat, Liver, S-9, Phenobarbital and 5,6-benzoflavone, Method: Preincubation) “inactive; negative”; (Test System: Ames Salmonella typhimurium, Strain/Indicator: TA100, Metabolic Activation: None, Method: Preincubation) “inactive; negative”; (Test System: Ames Salmonella typhimurium, Strain/Indicator: TA100, Metabolic Activation: Rat, Liver, S-9, Phenobarbital and 5,6-benzoflavone, Method: Preincubation) “inactive; negative”; (Test System: Ames Salmonella typhimurium, Strain/Indicator: TA1535, Metabolic Activation: None, Method: Preincubation) “inactive; negative”; (Test System: Ames Salmonella typhimurium, Strain/Indicator: TA1535, Metabolic Activation: Rat, Liver, S-9, Phenobarbital and 5,6-benzoflavone, Method: Preincubation) “inactive; negative”. Besides, the mutagenic call was “inactive; negative” (Test System: Ames Salmonella typhimurium, Strain/Indicator: TA1537, Metabolic Activation: None, Method: Preincubation); “inactive; negative” (Test System: Ames Salmonella typhimurium, Strain/Indicator: TA1537, Metabolic Activation: Rat, Liver, S-9, Phenobarbital and 5,6-benzoflavone, Method: Preincubation); “inactive; negative” (Test System: E. COLI, Strain/Indicator: WP2 UVRA, Metabolic Activation: HAMSTER, LIVER, S-9, AROCLOR 1254, Method: STANDARD PLATE); “inactive; negative” (Test System: E. COLI, Strain/Indicator: WP2 UVRA, Metabolic Activation: HAMSTER, LIVER, S-9, Method: STANDARD PLATE); “inactive; negative” (Test System: E. COLI, Strain/Indicator: WP2 UVRA, Metabolic Activation: MOUSE, LIVER, S-9, AROCLOR 1254, Method: STANDARD PLATE); “inactive; negative” (Test System: E. COLI, Strain/Indicator: WP2 UVRA, Metabolic Activation: MOUSE, LIVER, S-9, Method: STANDARD PLATE). Also, the mutagenic call reads like this: (Test System: E. COLI, Strain/Indicator: WP2 UVRA, Metabolic Activation: NONE, Method: STANDARD PLATE) “inactive; negative”; (Test System: E. COLI, Strain/Indicator: WP2 UVRA, Metabolic Activation: RAT, LIVER, S-9, AROCLOR 1254, Method: STANDARD PLATE) “inactive; negative”; (Test System: E. COLI, Strain/Indicator: WP2 UVRA, Metabolic Activation: RAT, LIVER, S-9, Method: STANDARD PLATE) “inactive; negative”; (Test System: E. coli, Strain/Indicator: WP2uvrA/pKM101, Metabolic Activation: None, Method: Preincubation) “inactive; negative”; (Test System: E. coli, Strain/Indicator: WP2uvrA/pKM101, Metabolic Activation: Rat, Liver, S-9, Phenobarbital and 5,6-benzoflavone, Method: Preincubation) “inactive; negative”; (Test System: MOUSE LYMPHOMA, Strain/Indicator: L5178Y (TK+/TK-), Metabolic Activation: NONE, Method: SUSPENSION/PLATE) “inactive; negative”. Moreover, the mutagenic call (Test System: MOUSE LYMPHOMA, Strain/Indicator: L5178Y (TK+/TK-), Metabolic Activation: RAT, LIVER, S-9, AROCLOR 1254, Method: SUSPENSION/PLATE) was “active; positive”.

`O=C1c2ccccc2-c2ccc3ccccc3c21`: the mutagenic call runs as follows: (Test System: AMES SALMONELLA TYPHIMURIUM, Strain/Indicator: TA98, Metabolic Activation: NONE, Method: STANDARD PLATE) “inactive; negative”; (Test System: AMES SALMONELLA TYPHIMURIUM, Strain/Indicator: TA98, Metabolic Activation: RAT, LIVER, S-9, AROCLOR 1254, Method: STANDARD PLATE) “inactive; negative”; under setting [5], “inactive; negative”; (Test System: AMES SALMONELLA TYPHIMURIUM, Strain/Indicator: TA100, Metabolic Activation: RAT, LIVER, S-9, AROCLOR 1254, Method: STANDARD PLATE) “inactive; negative”.

Turning to `O=C(N=c1sn(C(=O)c2ccc(Cl)c(Cl)c2)c2ccc([N+](=O)[O-])cc12)c1ccc(Cl)c(Cl)c1`, the mutagenic call (Test System: AMES SALMONELLA TYPHIMURIUM, Strain/Indicator: TA100, Metabolic Activation: S-9, Method: STANDARD PLATE) is “active; positive”.

Regarding `Nc1cc([N+](=O)[O-])cc(S(=O)(=O)O)c1O`, the mutagenic call reads like this: (Test System: AMES SALMONELLA TYPHIMURIUM, Strain/Indicator: TA97, Metabolic Activation: HAMSTER, LIVER, S-9, AROCLOR 1254 (10%), Method: PREINCUBATION) “inactive; negative”; (Test System: AMES SALMONELLA TYPHIMURIUM, Strain/Indicator: TA97, Metabolic Activation: HAMSTER, LIVER, S-9, AROCLOR 1254 (30%), Method: PREINCUBATION) “inactive; negative”; (Test System: AMES SALMONELLA TYPHIMURIUM, Strain/Indicator: TA97, Metabolic Activation: NONE, Method: PREINCUBATION) “inactive; negative”; (Test System: AMES SALMONELLA TYPHIMURIUM, Strain/Indicator: TA97, Metabolic Activation: RAT, LIVER, S-9, AROCLOR 1254 (10 OR 30%), Method: PREINCUBATION) “inactive; negative”; (Test System: AMES SALMONELLA TYPHIMURIUM, Strain/Indicator: TA98, Metabolic Activation: HAMSTER, LIVER, S-9, AROCLOR 1254 (10 OR 30%), Method: PREINCUBATION) “inactive; negative”; under setting [1], “inactive; negative”. In addition, the mutagenic call was “inactive; negative” (Test System: AMES SALMONELLA TYPHIMURIUM, Strain/Indicator: TA98, Metabolic Activation: RAT, LIVER, S-9, AROCLOR 1254 (10 OR 30%), Method: PREINCUBATION); “inactive; negative” (Test System: AMES SALMONELLA TYPHIMURIUM, Strain/Indicator: TA100, Metabolic Activation: HAMSTER, LIVER, S-9, AROCLOR 1254 (10 OR 30%), Method: PREINCUBATION); “inactive; negative” under setting [2]; “inactive; negative” (Test System: AMES SALMONELLA TYPHIMURIUM, Strain/Indicator: TA100, Metabolic Activation: RAT, LIVER, S-9, AROCLOR 1254 (10 OR 30%), Method: PREINCUBATION); “inactive; negative” (Test System: AMES SALMONELLA TYPHIMURIUM, Strain/Indicator: TA1535, Metabolic Activation: HAMSTER, LIVER, S-9, AROCLOR 1254 (10 OR 30%), Method: PREINCUBATION); “inactive; negative” under setting [3]. Further, the mutagenic call under setting [4] is “inactive; negative”.

`CSc1ncnc2nc[nH]c12`: under setting [5], the mutagenic call was “active; positive”.
